From PubChem BioAssay AID1963867 (Molecular Pharmacology Branch, DTP, NCI, 2024)

Tested on: KRAS-mutant PDC tumor spheroid with HUVEC/MSC, viability
Test: Anticancer human tumor 327498-153-R-J2-PDC patient-derived uterine carcinosarcoma cell line growth inhibition [KRAS2]
Settings: for viability, T/C: stronger effect = lower value
How it was run: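 KRAS-mutant tumor cells were grown as spheroids with HUVEC endothelial cells and human MSCs as stroma. Targeted agents were tested alone and with KRAS pathway inhibitors. Doses started at or near clinical Cmax, or 10 microM, descending half-log.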

[1] = curve of first compound, second compound 0.1 µM
[2] = curve of first compound, second compound 0.316 µM
[3] = curve of first compound, second compound 1 µM
[4] = curve of first compound, second compound 3.16 µM
[5] = curve of first compound, second compound 10 µM
[6] = second compound 0.1 µM, first compound 0.0316 µM
[7] = second compound 0.1 µM, first compound 0.1 µM
[8] = second compound 0.1 µM, first compound 0.316 µM
[9] = second compound 0.1 µM, first compound 1 µM
[10] = second compound 0.1 µM, first compound 3.16 µM
[11] = second compound 0.1 µM, first compound 10 µM
[12] = second compound 0.316 µM, first compound 0.0316 µM
[13] = second compound 0.316 µM, first compound 0.1 µM
[14] = second compound 0.316 µM, first compound 0.316 µM
[15] = second compound 0.316 µM, first compound 1 µM
[16] = second compound 0.316 µM, first compound 3.16 µM
[17] = second compound 0.316 µM, first compound 10 µM
[18] = second compound 1 µM, first compound 0.0316 µM
[19] = second compound 1 µM, first compound 0.1 µM
[20] = second compound 1 µM, first compound 0.316 µM
[21] = second compound 1 µM, first compound 1 µM
[22] = second compound 1 µM, first compound 3.16 µM
[23] = second compound 1 µM, first compound 10 µM
[24] = second compound 3.16 µM, first compound 0.0316 µM
[25] = second compound 3.16 µM, first compound 0.1 µM
[26] = second compound 3.16 µM, first compound 0.316 µM
[27] = second compound 3.16 µM, first compound 1 µM
[28] = second compound 3.16 µM, first compound 3.16 µM
[29] = second compound 3.16 µM, first compound 10 µM
[30] = second compound 10 µM, first compound 0.0316 µM
[31] = second compound 10 µM, first compound 0.1 µM
[32] = second compound 10 µM, first compound 0.316 µM
[33] = second compound 10 µM, first compound 1 µM
[34] = second compound 10 µM, first compound 3.16 µM
[35] = second compound 10 µM, first compound 10 µM
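Further: spheroids exposed to agents for seven days before reading.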
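Wherever viability, T/C is given: 100% = DMSO vehicle wells so lower means fewer viable cells.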

| SMILES | IC50 [1] [µM] | IC50 [2] [µM] | IC50 [3] [µM] | IC50 [4] [µM] | IC50 [5] [µM] | viability, T/C [6] [%] | viability, T/C [7] [%] | viability, T/C [8] [%] | viability, T/C [9] [%] | viability, T/C [10] [%] | viability, T/C [11] [%] | viability, T/C [12] [%] | viability, T/C [13] [%] | viability, T/C [14] [%] | viability, T/C [15] [%] | viability, T/C [16] [%] | viability, T/C [17] [%] | viability, T/C [18] [%] | viability, T/C [19] [%] | viability, T/C [20] [%] | other results |
| --- | --- | --- | --- | --- | --- | --- | --- | --- | --- | --- | --- | --- | --- | --- | --- | --- | --- | --- | --- | --- | --- |
| O=C(c1cc(Cc2n[nH]c(=O)c3ccccc23)ccc1F)N1CCN(C(=O)C2CC2)CC1 |  |  |  |  |  |  |  |  |  |  |  |  |  |  |  |  |  |  |  |  | viability, T/C (compound 0.0316 µM): 108% [middle of 5 runs]; viability, T/C (compound 0.1 µM): 99.3% [middle of 5 runs]; viability, T/C (compound 0.316 µM): 93% [middle of 5 runs]; viability, T/C (compound 1 µM): 81.6% [middle of 5 runs]; viability, T/C (compound 3.16 µM): 41.5% [middle of 5 runs]; viability, T/C (compound 10 µM): 18.4% [middle of 5 runs]; IC50 (curve of compound): 2.58 µM [middle of 5 runs] |
| O=C(c1cc(Cc2n[nH]c(=O)c3ccccc23)ccc1F)N1CCN(C(=O)C2CC2)CC1 + C=CC(=O)N1CCN(c2nc(=O)n(-c3c(C)ccnc3C(C)C)c3nc(-c4c(O)cccc4F)c(F)cc23)C(C)C1 | 0.97 | 0.713 | 0.588 | 0.488 | < 0.0316 | 60.2 | 57.3 | 65.3 | 48.8 | 23.6 | 16.3 | 59.5 | 59.4 | 57.5 | 46.8 | 21.9 | 15.2 | 66.3 | 60.1 | 56 | viability, T/C [21]: 46.2%; viability, T/C [22]: 26.5%; viability, T/C [23]: 16.4%; viability, T/C [24]: 66%; viability, T/C [25]: 61.2%; viability, T/C [26]: 51.7%; viability, T/C [27]: 46.4%; viability, T/C [28]: 22.6%; viability, T/C [29]: 18.2%; viability, T/C [30]: 49.5%; viability, T/C [31]: 48.2%; viability, T/C [32]: 47.3%; viability, T/C [33]: 36.3%; viability, T/C [34]: 24.8%; viability, T/C [35]: 18.9% |
| CCNC(=O)CC1N=C(c2ccc(Cl)cc2)c2cc(OC)ccc2-n2c(C)nnc21 (configuration not stated) + C=CC(=O)N1CCN(c2nc(=O)n(-c3c(C)ccnc3C(C)C)c3nc(-c4c(O)cccc4F)c(F)cc23)C(C)C1 | 0.253 | 0.103 | 0.154 | 0.117 | < 0.0316 | 58.2 | 58.7 | 45.8 | 40.4 | 29.7 | 24.3 | 55.6 | 50.7 | 45.7 | 33.5 | 28.6 | 22.3 | 60.4 | 51.2 | 51.1 | viability, T/C [21]: 33.7%; viability, T/C [22]: 26.2%; viability, T/C [23]: 22.7%; viability, T/C [24]: 55.4%; viability, T/C [25]: 48.9%; viability, T/C [26]: 46.3%; viability, T/C [27]: 35.8%; viability, T/C [28]: 26.5%; viability, T/C [29]: 19.1%; viability, T/C [30]: 41.6%; viability, T/C [31]: 43.3%; viability, T/C [32]: 33.2%; viability, T/C [33]: 26.9%; viability, T/C [34]: 23.5%; viability, T/C [35]: 17.9% |
